What was measured:
[1] = tissues outside of liver and kidney; cited from earlier work
[2] = NMR relaxivity from slope of 1/T1 or 1/T2 versus concentration; assay type: physicochemical; conditions: for r1 / r2: D2O and dilute acetic acid, 500 MHz
Description: Fresh samples for NMR measurements were prepared immediately prior to use. Both the cluster and cluster coated beads were dissolved in distilled water, and filtered via syringe filter. T1 measurements were measured using the inversion recovery pulse sequence, in a field of 300 MHz or 500 MHz, at room temperature with a least squares fit to 10 data points. The T2 was obtained using a conventional spin echo sequence on a 300 MHz spectrometer and using Carr-Purcell-Meiboom-Gill (CPMG) sequence on 500 MHz Bruker spectrometer. Relaxivity was determined from the slope of a plot of 1/T1 or 1/T2 versus concentration of Mn-12 and Mn-12 coated beads. The cluster concentration was determined by atomic absorption of Mn.

[3] = Solubility and stability of Mn-12 in water and aqueous acetic acid; assay type: physicochemical
From the text: Based on simple criteria, Mn-12 appears ideal as a contrast agent.

[4] = RT, per mM cluster, listed as Mn-12

Row | stability in presence of excess carboxylic acid ([3]; aqueous acetic acid solutions, re-isolated after many hours) | Compound | effect on T1 and T2 in tissues [1] | temperature dependence of relaxivity ([2]; 37° C. versus room temperature) | r1 ([2]; 37° C.) [mM⁻¹ s⁻¹] | r2 ([2]; 37° C.) [mM⁻¹ s⁻¹] | r1 ([2]; RT, per mM cluster) [mM⁻¹ s⁻¹] | r2 ([2]; RT, per mM cluster) [mM⁻¹ s⁻¹] | r1 [2, 4] [mM⁻¹ s⁻¹] | r2 [2, 4] [mM⁻¹ s⁻¹] | field dependence of relaxivity ([2]; measurements at 300, 400, and 500 MHz) | behaviour upon dissolution in distilled water ([3]; distilled water)
1 |  | Cc1[nH+]cc(COP(=O)([O-])[O-])c(CN(CCN(CC(=O)[O-])Cc2c(COP(=O)([O-])O)c[nH+]c(C)c2O)CC(=O)[O-])c1O.[Mn].[Na+].[Na+].[Na+] [Mn-DPDP, manganese dipyrodoxaldiphosphate] | only limited effect on T1 and T2 |  |  |  |  |  |  |  |  | 
2 | stable in aqueous acetic acid solutions | [Mn12O12(O2CCH3)16 (H2O)4] [Mn12O12Ac16] |  | decreased at higher temperatures | 2.7 ± 0.1 | 34 ± 1 | 3.0 ± 0.1 | 48 ± 1 | 3.0 ± 0.1 | 48 ± 1 | increase with higher fields | within minutes a flocculent material forms

Source: patent publication US10342881B2, “Manganese-oxo clusters as contrast agents for magnetic resonance imaging” (Georgetown University, priority 2008, dated 2019)
